Molecular target: FAS (Mus musculus, UniProt P19096)
Assay: FAS activity of treated 3T3-L1 cells (method of Kelley, NADPH oxidation)
Type: cell-based
Conditions: C75 25 µM, 6 days; compared with rAIM
Experimental: The influence of AIM on FAS activity of adipocyte or adipose tissue was examined. FAS activity was measured by the method of Kelley (Kelley et al., Biochem. J., 1986, 235:87-90) with slight modification. 3T3-L1 adipocytes, or lysates of adipose tissue of obese mice was mixed with acetyl-CoA and NADPH (0.2 M calcium phosphate buffer [pH 7.0] containing 0.4 mM EDTA), and the mixture was placed in a spectrophotometer cuvette and maintained at 30°C. 20 µl of malonyl-CoA solution (0.2 mM) was added to start an enzyme reaction and decrease of OD was measured at a chart speed 2 cm/min. Based on the results, the enzyme activity of FAS was evaluated using the molar extinction coefficient of oxidized NADPH as 6220.
First, the FAS activity of 3T3-L1 cells treated for 6 days in the presence or absence of rAIM (5 µg/ml), and in the presence of C75 (25 µM) was measured. […] The samples were dissolved (lysed) and the FAS activity was measured. The data was converted to that based on FAS protein, according to the results of WB performed using the same sample.

FAS, sequence (P19096 whole entry): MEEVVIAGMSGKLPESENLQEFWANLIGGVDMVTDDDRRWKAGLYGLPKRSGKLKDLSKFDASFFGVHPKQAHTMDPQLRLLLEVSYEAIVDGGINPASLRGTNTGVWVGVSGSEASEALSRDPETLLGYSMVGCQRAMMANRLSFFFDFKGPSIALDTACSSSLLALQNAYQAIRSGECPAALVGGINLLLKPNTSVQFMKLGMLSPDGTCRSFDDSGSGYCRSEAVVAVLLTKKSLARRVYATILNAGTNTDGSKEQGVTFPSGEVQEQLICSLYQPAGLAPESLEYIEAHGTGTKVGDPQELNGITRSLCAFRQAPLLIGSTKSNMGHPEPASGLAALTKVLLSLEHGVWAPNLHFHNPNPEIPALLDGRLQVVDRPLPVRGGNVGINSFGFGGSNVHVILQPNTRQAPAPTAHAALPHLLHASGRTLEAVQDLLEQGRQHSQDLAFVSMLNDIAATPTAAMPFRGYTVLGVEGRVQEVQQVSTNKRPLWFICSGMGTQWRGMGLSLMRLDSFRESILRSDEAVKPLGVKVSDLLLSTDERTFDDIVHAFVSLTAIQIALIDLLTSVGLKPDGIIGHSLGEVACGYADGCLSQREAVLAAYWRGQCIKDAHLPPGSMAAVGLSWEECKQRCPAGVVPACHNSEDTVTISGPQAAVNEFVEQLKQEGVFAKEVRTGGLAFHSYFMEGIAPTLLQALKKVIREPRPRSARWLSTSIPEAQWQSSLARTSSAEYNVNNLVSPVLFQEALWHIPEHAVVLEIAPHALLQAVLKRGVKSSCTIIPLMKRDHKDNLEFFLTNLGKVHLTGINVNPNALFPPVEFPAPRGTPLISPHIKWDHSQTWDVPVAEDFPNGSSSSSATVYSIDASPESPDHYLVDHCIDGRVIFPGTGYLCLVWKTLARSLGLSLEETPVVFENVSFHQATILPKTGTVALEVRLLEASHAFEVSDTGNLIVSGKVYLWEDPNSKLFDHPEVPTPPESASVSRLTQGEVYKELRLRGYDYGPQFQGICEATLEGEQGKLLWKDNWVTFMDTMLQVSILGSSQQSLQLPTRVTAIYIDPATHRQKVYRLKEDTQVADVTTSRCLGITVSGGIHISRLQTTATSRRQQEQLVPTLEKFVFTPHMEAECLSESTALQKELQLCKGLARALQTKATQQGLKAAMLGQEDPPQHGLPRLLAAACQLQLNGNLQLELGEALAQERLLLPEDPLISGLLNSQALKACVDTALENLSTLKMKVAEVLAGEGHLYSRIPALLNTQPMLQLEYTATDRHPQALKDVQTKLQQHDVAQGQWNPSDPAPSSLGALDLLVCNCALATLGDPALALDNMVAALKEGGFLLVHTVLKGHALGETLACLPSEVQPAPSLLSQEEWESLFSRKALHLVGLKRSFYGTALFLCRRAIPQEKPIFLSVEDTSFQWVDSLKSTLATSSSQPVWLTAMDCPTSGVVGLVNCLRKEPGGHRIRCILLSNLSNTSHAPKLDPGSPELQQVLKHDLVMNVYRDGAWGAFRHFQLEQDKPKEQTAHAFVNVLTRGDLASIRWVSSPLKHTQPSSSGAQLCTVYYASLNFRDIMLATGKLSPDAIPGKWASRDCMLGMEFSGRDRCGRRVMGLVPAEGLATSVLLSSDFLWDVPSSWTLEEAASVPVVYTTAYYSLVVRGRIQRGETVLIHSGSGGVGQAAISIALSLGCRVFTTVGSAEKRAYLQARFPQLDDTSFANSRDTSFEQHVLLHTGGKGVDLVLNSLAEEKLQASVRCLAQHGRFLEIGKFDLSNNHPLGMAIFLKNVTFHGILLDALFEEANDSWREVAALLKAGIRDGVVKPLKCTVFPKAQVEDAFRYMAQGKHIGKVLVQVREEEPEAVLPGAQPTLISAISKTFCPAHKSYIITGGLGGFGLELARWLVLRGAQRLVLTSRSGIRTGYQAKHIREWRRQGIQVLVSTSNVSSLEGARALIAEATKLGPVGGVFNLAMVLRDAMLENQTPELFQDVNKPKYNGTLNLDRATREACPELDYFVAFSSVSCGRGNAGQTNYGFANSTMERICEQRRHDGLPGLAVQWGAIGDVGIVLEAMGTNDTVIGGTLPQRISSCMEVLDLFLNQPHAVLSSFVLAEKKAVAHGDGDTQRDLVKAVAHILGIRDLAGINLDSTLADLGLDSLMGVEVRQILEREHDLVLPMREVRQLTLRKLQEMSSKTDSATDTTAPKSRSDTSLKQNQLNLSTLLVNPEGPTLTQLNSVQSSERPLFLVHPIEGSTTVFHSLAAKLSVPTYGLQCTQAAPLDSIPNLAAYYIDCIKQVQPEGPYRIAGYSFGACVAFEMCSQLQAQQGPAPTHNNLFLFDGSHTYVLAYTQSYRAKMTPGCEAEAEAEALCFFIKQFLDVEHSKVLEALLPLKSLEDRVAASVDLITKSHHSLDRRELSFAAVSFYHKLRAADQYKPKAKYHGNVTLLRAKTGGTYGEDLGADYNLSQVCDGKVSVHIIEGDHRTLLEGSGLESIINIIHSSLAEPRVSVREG

## C=C1C(=O)OC(CCCCCCCC)C1C(=O)O (stereo not shown) [C75]
  level of suppression of FAS activity in 3T3-L1 adipocytes: level of suppression was the same

Reference: patent publication EP2573192A1, “METHOD AND KIT FOR DIAGNOSING AIM-RELATED ILLNESS” (Miyazaki, Toru, priority 2010, dated 2011)
